What was measured:
[1] = tested on: normal human dermal fibroblasts (NHDF); assay: MTT assay, viability of NHDF cell culture (ISO 10993 part 5); format: cell-based; details: NHDF cell cultures, 24 h incubation; for IC50: Homo sapiens, MTT, mean (± SD), n = 5
Protocol: The viability of the normal human dermal fibroblasts (NHDF) cell culture after 24 h incubation with the tested compounds 5a-c-7a-c was assessed by carrying out the MTT assay. This test was performed according to ISO 10993 part 5, Appendix C. For all tested compounds, the IC50 values were calculated using four-parameter logistics. Normal human dermal fibroblasts (NHDF) were purchased from the American Type Culture Collection (ATCC) for cytotoxicity evaluation of the tested compounds. The cells were grown in Dulbecco's Modified Eagle Medium DMEM with […] glucose without phenol red supplemented with 10% FBS and 2 mM L-glutamine, and 25 μg/mL gentamicin. The NHDF cells were cultured under standard conditions (5% CO2, 37 °C, and 95% humidity) with evaluation morphology and confluence at least twice a week. For the assay, the cells were used only in a logarithmic growth phase, and the TrypLE solution was used for 2 min at 37 °C to detach cells. Then, the TrypLE solution was inactivated by adding a culture medium, and the suspension of cells was collected into a tube and centrifuged for 5 min at 1000 rpm. Then, the supernatant was removed, fresh medium was added, and the pellet was resuspended and calculated using the […] chamber. The suspension of cells was prepared to allow seeding 10,000 cells/well density and incubated for 24 h to regenerate in CO2-incubator. The tested compounds were dissolved in DMSO to a final concentration of 10 mM and stored at -20 °C. Before use, the compound solution was kept at room temperature until thawing, and then, samples with 3 different concentrations of compounds were prepared (100 μM, 50 μM, and 10 μM) for each compound. The tested concentrations of compounds were prepared in a culture medium. […] The evaluation of the cytotoxicity of the newly synthesized compounds was carried out in accordance with the ISO 10,993 part V standard by performing the MTT test. After seeding at a density of 10,000 cells per well and adhering overnight, the NHDF cells were treated with the test compounds for 24 h in a CO2 incubator. The supernatant was then removed, the cells were washed with PBS, a 1mg/mL solution of MTT dissolved in MEM was added, and the cultures were re-incubated for 2 h in a CO2 incubator. The medium was then removed, and for a further 30 min, the formazan crystals were dissolved in 100 μL of isopropanol. The absorbance was measured with a Varioskan Go microplate reader at a wavelength of 570 nm. […] For enzyme assays, the IC50 was calculated according to the procedure provided by the kit manufacturer. The significance was set at p < 0.05. Based on the tests performed, the test power was calculated to be greater than 80%.

[2] = target: T1, COX-2 (Homo sapiens, UniProt P35354); assay: COX-2 inhibition, Cayman's COX Colorimetric Inhibitor Screening Assay Kit; details: for Selectivity Index (SI): COX-2 IC50/COX-1 IC50
T1 sequence (P35354 18-604): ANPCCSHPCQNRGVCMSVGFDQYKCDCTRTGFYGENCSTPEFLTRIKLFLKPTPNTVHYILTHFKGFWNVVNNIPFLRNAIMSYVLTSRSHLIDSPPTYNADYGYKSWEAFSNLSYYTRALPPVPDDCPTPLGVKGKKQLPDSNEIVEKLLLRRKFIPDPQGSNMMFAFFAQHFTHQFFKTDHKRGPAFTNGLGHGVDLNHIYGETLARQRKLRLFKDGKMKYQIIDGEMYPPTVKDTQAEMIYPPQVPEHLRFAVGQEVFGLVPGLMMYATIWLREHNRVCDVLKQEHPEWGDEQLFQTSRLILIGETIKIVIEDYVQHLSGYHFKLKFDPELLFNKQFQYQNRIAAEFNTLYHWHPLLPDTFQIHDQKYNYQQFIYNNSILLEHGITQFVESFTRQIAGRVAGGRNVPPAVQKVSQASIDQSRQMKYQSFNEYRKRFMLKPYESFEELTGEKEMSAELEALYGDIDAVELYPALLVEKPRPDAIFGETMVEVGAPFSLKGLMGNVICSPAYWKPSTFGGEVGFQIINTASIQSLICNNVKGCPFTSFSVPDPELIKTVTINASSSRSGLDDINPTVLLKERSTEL

[3] = target: human serum albumin (HSA) (Homo sapiens, UniProt P02768); assay: Fluorescence quenching titration of HSA; details: for Kd: logKb; for ΔG°: one value per compound, temperature not given; for ΔH° / ΔS°: van't Hoff
human serum albumin (HSA), sequence (P02768 25-609): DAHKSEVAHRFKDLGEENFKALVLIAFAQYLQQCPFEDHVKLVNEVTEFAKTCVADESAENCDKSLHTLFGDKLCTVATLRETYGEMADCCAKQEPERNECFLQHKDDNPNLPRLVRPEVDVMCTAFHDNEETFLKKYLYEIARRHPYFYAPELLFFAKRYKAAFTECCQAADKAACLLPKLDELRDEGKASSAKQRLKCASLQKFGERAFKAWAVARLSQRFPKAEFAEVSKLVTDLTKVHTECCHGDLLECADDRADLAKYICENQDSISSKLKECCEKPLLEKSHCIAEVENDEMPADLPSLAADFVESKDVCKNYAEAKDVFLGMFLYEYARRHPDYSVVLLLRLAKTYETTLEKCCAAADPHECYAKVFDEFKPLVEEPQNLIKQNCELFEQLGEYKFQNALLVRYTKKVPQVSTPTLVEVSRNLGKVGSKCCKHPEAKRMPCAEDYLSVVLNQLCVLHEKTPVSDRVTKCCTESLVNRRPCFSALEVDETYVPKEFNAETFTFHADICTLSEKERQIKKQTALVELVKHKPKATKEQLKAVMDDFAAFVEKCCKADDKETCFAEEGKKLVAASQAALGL

[4] = tested on: alpha-1-acid glycoprotein (AAG); assay: Fluorescence quenching titration of AAG
Protocol: Aex is the absorbance at excitation wavelengths, and Aem is the absorbance at emission wavelengths.
The correlation between the stability constant of complexes Kb and standard thermodynamic parameters enthalpy change (ΔH°), and entropy change (ΔS°) was determined by the van’t Hoff Equation (4):(4) logKb=−∆H^°/RT+∆S^°/R where R is the universal gas constant; the free energy change (ΔG°) can be calculated by following Equation (5):(5) ∆G^°=∆H^°−T∆S^°=−RTlnKb
The fluorescence study was performed on a Cary Eclipse 500 spectrophotometer (Agilent, Santa Clara, CA, USA). The spectra were recorded in a cuvette with 10 mm path length at an emission range of 300–500 nm, and the excitation wavelength was 280 nm.

Compound | IC50 [1] [µM] | Cell Morphology in Culture [1] | IC50 [2] [µM] | Selectivity Index (SI) [2] | Ksv ([3]; T 297 K) | kq ([3]; T 297 K) | n (number of binding sites) ([3]; T 297 K) | Ksv ([3]; T 303 K) | kq ([3]; T 303 K) | n (number of binding sites) ([3]; T 303 K) | Ksv ([3]; T 308 K) | kq ([3]; T 308 K) | n (number of binding sites) ([3]; T 308 K) | Kd ([3]; T 297 K) [µM] | Kd ([3]; T 303 K) [µM] | Kd ([3]; T 308 K) [µM] | ΔG° [3] [kcal/mol] | ΔH° [3] [kcal/mol] | ΔS° [3] [J·mol^−1·K^−1] | melting point [°C] | other results
CCCCn1c(C)c2c(OCC(=O)N/N=C/c3ccccc3)nn(C)c(=O)c2c1C [Compound 5a, N-[(Z/E)-benzylideneamino]-2-(6-butyl-3,5,7-trimethyl-4-oxo-pyrrolo[3,4-d]pyridazin-1-yl)oxy-acetamide] | 85.6 ± 2.5 | Cells with an elongated shape characteristic of fibroblasts, the granularities were observed in 3–5 fields of view from 10 analyzed fields. | 17.2 ± 1.4 | 0.21 | 1.87 ± 0.04 × 10^5 dm^3·mol^−1 | 1.87 × 10^13 dm^3·mol^−1·s^−1 | 0.97 ± 0.04 | 1.71 ± 0.03 × 10^5 dm^3·mol^−1 | 1.71 × 10^13 dm^3·mol^−1·s^−1 | 0.95 ± 0.02 | 1.41 ± 0.03 × 10^5 dm^3·mol^−1 | 1.41 × 10^13 dm^3·mol^−1·s^−1 | 0.92 ± 0.02 | 7.94 | 11.2 | 20.9 | -6.979 | -16.14 | −129.11 | 210 to 212 | Ksv ([4]; T 297 K): 9.04 ± 0.16 ·10^4 dm^3·mol^−1; kq ([4]; T 297 K): 9.04 ·10^12 dm^3·mol^−1·s^−1; logKb ([4]; T 297 K): 1.82 ± 0.12; Ksv ([4]; T 303 K): 3.15 ± 0.41 ·10^4 dm^3·mol^−1; kq ([4]; T 303 K): 3.15 ·10^12 dm^3·mol^−1·s^−1; logKb ([4]; T 303 K): 1.73 ± 0.27; Ksv ([4]; T 308 K): 1.11 ± 0.16 ·10^4 dm^3·mol^−1; kq ([4]; T 308 K): 1.11 ·10^12 dm^3·mol^−1·s^−1; logKb ([4]; T 308 K): 1.62 ± 0.26
Cc1c2c(OCC(=O)N/N=C/c3ccccc3)nn(C)c(=O)c2c(C)n1-c1cccc(Cl)c1 [Compound 5c, N-[(Z/E)-benzylideneamino]-2-[6-(3-chlorophenyl)-3,5,7-trimethyl-4-oxo-pyrrolo[3,4-d]pyridazin-1-yl]oxyacetamide] | 95.2 ± 1.5 | Cells with an elongated shape characteristic of fibroblasts, the granularities were observed in 3–5 fields of view from 10 analyzed fields. | 23.6 ± 2.5 | 0.23 | 4.33± 0.25 × 10^5 dm^3·mol^−1 | 4.33 × 10^13 dm^3·mol^−1·s^−1 | 0.92 ± 0.06 | 3.86 ± 0.13 × 10^5 dm^3·mol^−1 | 3.86 × 10^13 dm^3·mol^−1·s^−1 | 0.90 ± 0.02 | 2.87 ± 0.12 × 10^5 dm^3·mol^−1 | 2.87 × 10^13 dm^3·mol^−1·s^−1 | 0.85 ± 0.04 | 6.17 | 8.91 | 26.3 | -7.163 | -23.45 | −229.47 | 273 to 275 | Ksv ([4]; T 297 K): 15.87± 2.41 ·10^4 dm^3·mol^−1; kq ([4]; T 297 K): 15.87 ·10^12 dm^3·mol^−1·s^−1; logKb ([4]; T 297 K): 2.64 ± 0.16; Ksv ([4]; T 303 K): 14.60 ± 2.05 ·10^4 dm^3·mol^−1; kq ([4]; T 303 K): 14.60 ·10^12 dm^3·mol^−1·s^−1; logKb ([4]; T 303 K): 2.47 ± 0.17; Ksv ([4]; T 308 K): 9.99 ± 1.60 ·10^4 dm^3·mol^−1; kq ([4]; T 308 K): 9.99 ·10^12 dm^3·mol^−1·s^−1; logKb ([4]; T 308 K): 2.31 ± 0.20
Cc1c2c(OCC(=O)N/N=C/c3ccccc3)nn(C)c(=O)c2c(C)n1-c1ccccc1 [Compound 5b, N-[(Z/E)-benzylideneamino]-2-(3,5,7-trimethyl-4-oxo-6-phenyl-pyrrolo[3,4-d]pyridazin-1-yl)oxy-acetamide] | 486 ± 6.5 | Normal morphology of fibroblasts-elongated cells, single granular cells in 1 of 10 assessed fields of view. | 22.7 ± 1.2 | 0.25 | 5.55 ± 0.33 × 10^5 dm^3·mol^−1 | 5.55 × 10^13 dm^3·mol^−1·s^−1 | 1.15 ± 0.06 | 5.26 ± 0.28 × 10^5 dm^3·mol^−1 | 5.26 × 10^13 dm^3·mol^−1·s^−1 | 1.10 ± 0.10 | 4.75 ± 0.23 × 10^5 dm^3·mol^−1 | 4.75 × 10^13 dm^3·mol^−1·s^−1 | 1.02 ± 0.05 | 0.263 | 0.49 | 1.45 | -9.001 | -27.77 | −264.38 | 274 to 275 | Ksv ([4]; T 297 K): 10.41 ± 1.08 ·10^4 dm^3·mol^−1; kq ([4]; T 297 K): 10.41 ·10^12 dm^3·mol^−1·s^−1; logKb ([4]; T 297 K): 2.71 ± 0.21; Ksv ([4]; T 303 K): 11.41 ± 1.42 ·10^4 dm^3·mol^−1; kq ([4]; T 303 K): 11.41 ·10^12 dm^3·mol^−1·s^−1; logKb ([4]; T 303 K): 2.53 ± 0.15; Ksv ([4]; T 308 K): 8.39 ± 1.24 ·10^4 dm^3·mol^−1; kq ([4]; T 308 K): 8.39 ·10^12 dm^3·mol^−1·s^−1; logKb ([4]; T 308 K): 2.35 ± 0.12

Source: publication PMC10383271
